From patent US8796285B2, “Pyrazolo [1,5-a]-pyrimidones derivatives and pharmaceutical compositions and uses thereof” (Hebei Medical University, priority 2009, dated 2014)
Read-outs that look alike come from different tables or passages of the source.

What was measured:
[1] = target: KCNQ4 potassium ion channel (Homo sapiens, UniProt P56696); assay: High throughput atomic absorption Rb+ efflux testing, CHO cell of KCNQ4 channel; assay type: cell-based; details: for EC50: CHO cell of KCNQ4 channel
Description: Atomic absorption Rb^+ efflux testing is a fast and safe selection method for high throughput potassium channel moderator, and is characterized in that the activity of the ion channel and the control effect of the opener are directly reflected. Rb and K have similar atomic size, and potassium ion channel is permeable to Rb^+. By testing concentration of the Rb^+ efflux, a status of the potassium channel, which is an open status or a close status, can be determined. Rb has specific absorption at 780 nm, and Rb^+ concentration can be determined by atomic absorption spectroscopy. Accordingly, analysis method of atomic absorption spectroscopy can be used to select the opener/inhibitor of potassium channel through high throughput of Rb^+ efflux.
Stable cell transfer of CHO cell of KCNQ4 channel at log phase and inoculate in 96-well culture plate at a density of 2×10^4 unit/well. Each concentration has a triplicate-hole setting, and a control setting with solvent of corresponding concentration. Allow growth against the well-wall overnight, then discard the culture medium, add 200 μl loading buffer which contains RbCl, and culture in 5% CO2 at 37° C. for 3 hours. Then remove the loading buffer and wash with wash buffer for 3 times. Screen for the KCNQ opener, dilute testing compound with depolarization buffer, add 200 μl of the above solvent into the cell and allow reaction for 10 minutes. Incubate for 10 minutes, then carefully draw 200 μl supernatant to another 96-well culture plate, use ICR8000 atomic absorption spectrometry to determine the Rb^+ atomic absorption at 780 nm. Based on the equation Fsupern=(Rb_supern/cpd/Rb_supern/d)×100, calculate the corresponding rate of efflux.

KCNQ2/3 = target: T1, KCNQ2/3 (Homo sapiens, UniProt O43525+O43526); assay: High throughput atomic absorption Rb+ efflux testing, KCNQ2/3; assay type: cell-based; details: Rb+ efflux by atomic absorption
T1 construct: expressed in transfected cells

KCNQ2/Q3 channel = KCNQ2/Q3 channel (Homo sapiens, UniProt O43525+O43526); assay: Patch-clamp electrophysiology testing, CHO cell of KCNQ2/Q3 channel; assay type: cell-based; details: clamping voltage -80 mV, depolarized to -40 mV, FIG. 5a
Description: (2) Testing method: Culture of ovary cell of Chinese hamster (CHO, Chinese Hamster Overy): steadily transfer the CHO cell culture of KCNQ2/Q3 channel into a composition containing 10% fetal bovine serum, 100 U/ml penicillin and DMEM culture solution of streptomycin, and allow digestion passage of trypsin. Spread the cell on a 12 mm round-shaped coverslip and culture on a 24-well cell culture plate.
Record membrane current using patch-clamp technique: The patch-clamp amplifier is HEKA-EPC10. The electrode solution uses amphotericin B (final concentration of 0.1˜0.2 mg/ml) for perforated patch clamp recording. After polishing the microelectrodes, inject the electrode solution and control the to 2˜4MΩ. The electrode solution used for recording CHO cell are (mM): KCl 160, HEPES 5, MgCl2 3, CaCl2 1, EGTA 2, with pH adjusted to 7.4 with KOH; Extracellular electrode composition are (mM): NaCl 160, KCl 2.5, HEPES 10, glucose 8, MgCl2 1, CaCl2 5. After the cell membrane and microelectrodes form a high resistance seal, clamp at −80 mV, wait 5-10 min and record the readings according to different activation procedures.

male mice [2] = assay: The maximum electric shock experiment; assay type: in vivo; details: Mus musculus, corneal electrode 26 mA 0.4 second, forced feeding 10, 25, 50 mg/kg, read-out: ED50 anticonvulsant effect
Description: “The maximum electric shock” experiment: The experiment uses electrical method to measure non-specific CNS-induced seizures.
Pharmaceutical composition used: the compound number 21 for the testing group, phenyloin for positive control group.
Experimental method: Apply corneal electrode in male mice of each group, apply 26 mA square wave current for 0.4 second, and forced feeding the pharmaceutical composition after inducing convulsion which is characterized by hindlimb tonic extension (Wlaz et al., Epilepsy Research 1998, 30, 219-229). Dosages for the testing group are: 10 mg/kg (body weight) per administration, 25 mg/kg (body weight) per administration, and 50 mg/kg (body weight) per administration respectively. For control group, dosage is 25 mg/kg (body weight) per administration.

rat = assay: Amygdala kindling experiment; assay type: in vivo; details: vs pre-administration, p<0.01 vs control group
Description: This experiment is used to measure the disease progress, when further stimulation is applied, the seizure level of the animal in this model will be increased as in the situation of normal animal.
Pharmaceutical composition used: suspended solution of sodium carboxymethyl cellulose containing the compound number 21 for the testing group, suspended solution of sodium carboxymethyl cellulose for the positive control group, with concentration equal to the suspended solution of the testing group.
Testing method: perform surgery to implant tri-polar electrode into dorsolateral amygdale of rat. After surgery, allow the animal to recover, then administer testing compound or pharmaceutical solvent agent of different dosages to rat of different groups. The animal is treated with electrical stimulation at a value which is +25 μA of the initial discharge threshold on a daily basis for 3-5 weeks, and record each seizure incidence in which the level of seizure, the duration of the seizure, and electrical duration after discharge are recorded (Racine. Electroencephalography and Clinical Neurophysiology 1972, 32, 281-294). Dosage level is the same as that of exemplary embodiment 11.

male mice [3] = assay: Pilocarpine-induced seizures experiment; assay type: in vivo; details: Mus musculus, ip, pilocarpine 250 mg/kg i.p., compound by intraperitoneal injection 1, 5, 10 mg/kg, read-out: ED50 anti-epilepsy effect
Procedure: Pilocarpine-induced seizure is, in general, difficult to treat by using the existing anti-epileptic drug, so it belongs to “drug-resistance epilepsy” model.
Pharmaceutical composition used: the compound number 24 for the testing group, phenyloin for positive control group.
Experimental method: Inject 250 mg/kg pilocarpine into the male mice of each group by intraperitoneal injection, induce pilocarpine-induced seizure, observe walking abnormality caused by seizures activities in 30 minutes (Starr et al, Pharmacology Biochemistry and Behavior 1993, 45, 321-325). Apply intraperitoneal injection. Dosages for the testing group are: 1 mg/kg (body weight) per administration, 5 mg/kg (body weight) per administration, and 10 mg/kg (body weight) per administration respectively. For control group, dosage is 50 mg/kg (body weight) per administration.

Structure (SMILES)	EC50 ([1]; Rb+ efflux by atomic absorption, read-out: KCNQ4) [µM]	EC50 (KCNQ2/3) [nM]	activation of KCNQ2/3 channel current (KCNQ2/Q3 channel)	ED50 (male mice [2]) [mg/kg]	seizure level (rat)	time period after discharge process of amygdala (rat)	activating effect on the CHO cell of the KCNQ4 potassium ion channel ([1]; Rb+ efflux at 0.03, 0.1, 0.6, 1, 3 and 10 μM, FIG. 4)	EC50 ([1]; Rb+ efflux, 0.03-10 μM, FIG. 4, read-out: EC50) [µM]	ED50 (male mice [3]) [mg/kg]
O=c1cc(CCl)[nH]c2c(-c3ccccc3)c(C(F)(F)F)nn12 [Compound 21, 5-chloromethyl-3-phenyl-2-trifluoromethylpyrazolo[1,5-a]pyrimidin-7(4H)-one]	23.9 ± 0.43	3610 ± 6020	can activate the KCNQ2/3 channel current significantly	12.2 ± 0.08	increased in the seizure level	shorten time period after discharge process of amygdale			
O=c1cc(-c2cc(F)c(Cl)nc2Cl)[nH]c2c(-c3ccccc3)c(C(F)(F)F)nn12 [Compound 24]		78 ± 20					dose-dependent activating effect	0.21 ± 0.08	5.1 ± 0.05
